In ChEMBL document CHEMBL3885861, “Open TG-GATES”:

Species: Rattus norvegicus
Assay: Open TG-GATES - Regimen: Daily Repeat
Assay type: toxicity, organism-based, Sprague-Dawley
Parameters: regimen Daily Repeat, gender Male, age 6 weeks
Conditions: in vivo, po, route gavage; for TG / TP / gamma-GTP / ALP / ALT / CRE / DBIL / GLC / IP / K / LDH / Na / PL / RALB / TBIL / TC / BUN: tissue Plasma
[1] = 60 mg/kg, […], dose level Low, time 28 day
[2] = 200 mg/kg, 72 h, dose level Middle, time 3 day
[3] = 200 mg/kg, 72 h, tissue Blood, dose level Middle, time 3 day
[4] = 200 mg/kg, […], dose level Middle, time 7 day
[5] = 200 mg/kg, […], dose level Middle, time 14 day
[6] = 200 mg/kg, […], dose level Middle, time 28 day
[7] = 200 mg/kg, […], tissue Blood, dose level Middle, time 7 day
[8] = 200 mg/kg, […], tissue Blood, dose level Middle, time 14 day
[9] = 200 mg/kg, […], tissue Blood, dose level Middle, time 28 day
[10] = 600 mg/kg, 72 h, dose level High, time 3 day
[11] = 600 mg/kg, 72 h, tissue Blood, dose level High, time 3 day
[12] = 600 mg/kg, […], dose level High, time 7 day
[13] = 600 mg/kg, […], dose level High, time 14 day
[14] = 600 mg/kg, […], dose level High, time 28 day
[15] = 600 mg/kg, […], tissue Blood, dose level High, time 7 day
[16] = 600 mg/kg, […], tissue Blood, dose level High, time 14 day
[17] = 600 mg/kg, […], tissue Blood, dose level High, time 28 day

For CCN(CC)C(=S)SSC(=S)N(CC)CC, the TG [1] was 67.8 mg/dL, the TP [1] was 5.9 g/dL and the gamma-GTP [1] was 1.8 IU/L. For the same compound, the TERMINAL_BW [2] was 218.6 g, the APTT [3] was 22.4 s and the Bas [3] was 0%. For the same compound, the Eos [3] was 1%, the Fbg [3] was 344.8 mg/dL and the Hb [3] was 12.4 g/dL. The Ht [3] was 37.6%, the MCH [3] was 19.7 pg and the MCHC [3] was 32.9%. For the same compound, the MCV [3] was 60 fL, the Mono [3] was 2.2% and the PT [3] was 15.7 s. The Plat [3] was 109.9 x10_4/uL, the RBC [3] was 627.2 x10_4/ul and the Ret [3] was 4.6%. It also gave a WBC [3] of 80.4 x10_2/uL, an ALP [2] of 878 IU/L and an ALT [2] of 45 IU/L. It also gave a CRE [2] of 0.2 mg/dL, a DBIL [2] of 0.008 mg/dL and a GLC [2] of 170.6 mg/dL. The IP [2] was 7 mg/dL, the K [2] was 4.1 meq/L and the LDH [2] was 195.4 IU/L. It also gave a Na [2] of 144 meq/L, a PL [2] of 189.4 mg/dL and an RALB [2] of 3.1 g/dL. The TBIL [2] was 0.014 mg/dL, the TC [2] was 117.8 mg/dL and the TG [2] was 54.8 mg/dL. The TP [2] was 5.6 g/dL, the gamma-GTP [2] was 1.2 IU/L and the TERMINAL_BW [4] was 250.3 g. The TERMINAL_BW [5] was 290.7 g, the TERMINAL_BW [6] was 357.8 g and the APTT [7] was 20.7 s. It also gave a Bas [7] of 0%, an Eos [7] of 1% and a Fbg [7] of 349.8 mg/dL. It also gave a Hb [7] of 12.3 g/dL, a Ht [7] of 37.8% and an MCH [7] of 20.2 pg. For the same compound, the MCHC [7] was 32.7%, the MCV [7] was 61.8 fL and the Mono [7] was 2.4%. For the same compound, the PT [7] was 16.3 s, the Plat [7] was 130.6 x10_4/uL and the RBC [7] was 611 x10_4/ul. The Ret [7] was 7.1%, the WBC [7] was 101.3 x10_2/uL and the APTT [8] was 23.3 s. It also gave a Bas [8] of 0%, an Eos [8] of 1% and a Fbg [8] of 348.6 mg/dL. The Hb [8] was 13.6 g/dL, the Ht [8] was 39.4% and the MCH [8] was 20 pg. The MCHC [8] was 34.5%, the MCV [8] was 58 fL and the Mono [8] was 2.4%. The PT [8] was 16.1 s, the RBC [8] was 679.6 x10_4/ul and the Ret [8] was 5.2%. It also gave a WBC [8] of 99.9 x10_2/uL, an APTT [9] of 24.5 s and a Bas [9] of 0%. The Eos [9] was 1.4%, the Fbg [9] was 385.6 mg/dL and the Hb [9] was 14.2 g/dL. For the same compound, the Ht [9] was 40.9%, the MCH [9] was 19 pg and the MCHC [9] was 34.8%. The MCV [9] was 54.7 fL, the Mono [9] was 2% and the Neu [9] was 16%. The PT [9] was 16.3 s, the Plat [9] was 100.5 x10_4/uL and the RBC [9] was 748.8 x10_4/ul. It also gave a Ret [9] of 4%, a WBC [9] of 118.2 x10_2/uL and an ALP [4] of 989.4 IU/L. The ALT [4] was 46 IU/L, the BUN [4] was 18.2 mg/dL and the CRE [4] was 0.2 mg/dL. It also gave a DBIL [4] of 0 mg/dL, a GLC [4] of 173.2 mg/dL and an IP [4] of 6.6 mg/dL. It also gave a K [4] of 4.3 meq/L, an LDH [4] of 195 IU/L and a Na [4] of 143 meq/L. For the same compound, the PL [4] was 171 mg/dL, the RALB [4] was 3.1 g/dL and the TBIL [4] was 0.006 mg/dL. It also gave a TG [4] of 38.2 mg/dL, a TP [4] of 5.8 g/dL and a gamma-GTP [4] of 1.6 IU/L. It also gave an ALP [5] of 989.6 IU/L, an ALT [5] of 38.8 IU/L and a BUN [5] of 22.2 mg/dL. The CRE [5] was 0.2 mg/dL, the DBIL [5] was 0 mg/dL and the GLC [5] was 172.6 mg/dL. The IP [5] was 6.4 mg/dL, the K [5] was 4.2 meq/L and the LDH [5] was 126.6 IU/L. The Na [5] was 142 meq/L, the PL [5] was 181 mg/dL and the RALB [5] was 3.2 g/dL. For the same compound, the TBIL [5] was 0.014 mg/dL, the TC [5] was 104 mg/dL and the TG [5] was 41.2 mg/dL. The TP [5] was 6 g/dL, the gamma-GTP [5] was 3 IU/L and the ALP [6] was 809.6 IU/L. The ALT [6] was 37.2 IU/L, the BUN [6] was 21.2 mg/dL and the CRE [6] was 0.2 mg/dL. The DBIL [6] was 0 mg/dL, the GLC [6] was 165.8 mg/dL and the IP [6] was 6 mg/dL. The K [6] was 4 meq/L, the LDH [6] was 132 IU/L and the Na [6] was 142 meq/L. For the same compound, the PL [6] was 188 mg/dL, the RALB [6] was 3.3 g/dL and the TBIL [6] was 0.026 mg/dL. It also gave a TC [6] of 118 mg/dL, a TG [6] of 38 mg/dL and a TP [6] of 6.4 g/dL. The gamma-GTP [6] was 2.4 IU/L, the TERMINAL_BW [10] was 211.3 g and the APTT [11] was 23.3 s. The Bas [11] was 0%, the Eos [11] was 0.6% and the Fbg [11] was 405.6 mg/dL. The Hb [11] was 12.6 g/dL, the Ht [11] was 37.8% and the MCH [11] was 20.2 pg. It also gave an MCHC [11] of 33.3%, an MCV [11] of 60.9 fL and a Mono [11] of 2.4%. For the same compound, the PT [11] was 15.5 s, the Plat [11] was 118.3 x10_4/uL and the RBC [11] was 623 x10_4/ul. The Ret [11] was 4.4%, the WBC [11] was 61.8 x10_2/uL and the ALP [10] was 963 IU/L. For the same compound, the ALT [10] was 47.6 IU/L, the CRE [10] was 0.1 mg/dL and the DBIL [10] was 0.02 mg/dL. It also gave a GLC [10] of 162 mg/dL, an IP [10] of 7.7 mg/dL and a K [10] of 3.7 meq/L. The LDH [10] was 341.6 IU/L, the Na [10] was 144 meq/L and the PL [10] was 212.8 mg/dL. It also gave an RALB [10] of 3 g/dL, a TBIL [10] of 0.018 mg/dL and a TC [10] of 147.4 mg/dL. The TG [10] was 29.4 mg/dL, the TP [10] was 5.8 g/dL and the gamma-GTP [10] was 1.4 IU/L. It also gave a TERMINAL_BW [12] of 217.6 g, a TERMINAL_BW [13] of 270 g and a TERMINAL_BW [14] of 304.2 g. The APTT [15] was 25.8 s, the Bas [15] was 0% and the Eos [15] was 0.5%. It also gave a Fbg [15] of 408.2 mg/dL, a Hb [15] of 13.4 g/dL and a Ht [15] of 40%. The Lym [15] was 64.8%, the MCH [15] was 19.7 pg and the MCHC [15] was 33.5%. It also gave an MCV [15] of 58.8 fL, a Mono [15] of 5% and a Neu [15] of 28.8%. For the same compound, the PT [15] was 18.8 s, the Plat [15] was 130.8 x10_4/uL and the RBC [15] was 681.5 x10_4/ul. For the same compound, the Ret [15] was 4.8%, the WBC [15] was 88.4 x10_2/uL and the APTT [16] was 22.8 s. The Bas [16] was 0%, the Eos [16] was 1% and the Fbg [16] was 377.4 mg/dL. It also gave a Hb [16] of 13.4 g/dL, a Ht [16] of 38.3% and an MCH [16] of 19.6 pg. It also gave an MCHC [16] of 35%, an MCV [16] of 55.9 fL and a Mono [16] of 2.4%. For the same compound, the Neu [16] was 22.6%, the PT [16] was 16.8 s and the RBC [16] was 683.8 x10_4/ul. It also gave a Ret [16] of 5.7%, a WBC [16] of 85.1 x10_2/uL and an APTT [17] of 20.8 s. The Bas [17] was 0%, the Eos [17] was 1% and the Fbg [17] was 382.2 mg/dL. The Hb [17] was 13.4 g/dL, the Ht [17] was 38.9% and the MCH [17] was 18.9 pg. For the same compound, the MCHC [17] was 34.5%, the MCV [17] was 54.9 fL and the Mono [17] was 2.6%. It also gave a Neu [17] of 17.8%, a PT [17] of 17.4 s and a Plat [17] of 99.3 x10_4/uL. It also gave an RBC [17] of 708.2 x10_4/ul, a Ret [17] of 4.8% and a WBC [17] of 98.6 x10_2/uL. It also gave an ALP [12] of 563.5 IU/L, an ALT [12] of 41.8 IU/L and a BUN [12] of 17.5 mg/dL. For the same compound, the CRE [12] was 0.2 mg/dL, the DBIL [12] was 0.0275 mg/dL and the GLC [12] was 147.5 mg/dL. For the same compound, the IP [12] was 7.2 mg/dL, the K [12] was 4.3 meq/L and the LDH [12] was 354.2 IU/L. For the same compound, the Na [12] was 145.2 meq/L, the PL [12] was 201 mg/dL and the RALB [12] was 2.9 g/dL. It also gave a TBIL [12] of 0.025 mg/dL, a TG [12] of 16.5 mg/dL and a TP [12] of 5.8 g/dL. It also gave a gamma-GTP [12] of 2.5 IU/L, an ALP [13] of 1017.2 IU/L and an ALT [13] of 34 IU/L. The BUN [13] was 21 mg/dL, the CRE [13] was 0.2 mg/dL and the DBIL [13] was 0.004 mg/dL. For the same compound, the GLC [13] was 161.2 mg/dL, the IP [13] was 6.9 mg/dL and the K [13] was 4.1 meq/L. The LDH [13] was 173.8 IU/L, the Na [13] was 142.8 meq/L and the PL [13] was 178.8 mg/dL. For the same compound, the RALB [13] was 3.3 g/dL, the TBIL [13] was 0.024 mg/dL and the TC [13] was 109.4 mg/dL. The TG [13] was 29.2 mg/dL, the TP [13] was 6.2 g/dL and the gamma-GTP [13] was 2.8 IU/L. The ALP [14] was 651.8 IU/L, the ALT [14] was 34.2 IU/L and the BUN [14] was 19.6 mg/dL. The CRE [14] was 0.2 mg/dL, the DBIL [14] was 0.014 mg/dL and the GLC [14] was 156.8 mg/dL. It also gave an IP [14] of 6.1 mg/dL, a K [14] of 3.8 meq/L and an LDH [14] of 159.2 IU/L. The Na [14] was 143 meq/L, the PL [14] was 166.6 mg/dL and the RALB [14] was 3.2 g/dL. The TBIL [14] was 0.044 mg/dL, the TC [14] was 112.4 mg/dL and the TG [14] was 16.2 mg/dL. The TP [14] was 6.4 g/dL and the gamma-GTP [14] was 2.8 IU/L.
